Data from US20210177868A1, “NOVEL USE OF PHYTOSTENONE” (Daisankasei Co., Ltd., priority 2018, published 2021).

How the values were obtained:
SD rats = test: application of test substance onto dehaired abdominal skin of fattened SD rats for 2 weeks; weight of each fat measured; type: in vivo, rat; conditions: applied onto abdominal skin, 2 ml of 5 mg/ml ethanol solution daily for 2 weeks, n=3, p<0.05
Experimental: The abdomen of each fat rat was dehaired (20 mm square). Thereafter, 2 ml of a phytostenone-containing composition (30 mg/ml ethanol solution) used as a test substance, 2 ml of campest-5-en-3-one (5 mg/ml ethanol solution) used as a test substance, or 2 ml of an ethanol solution used as a control was applied gently with a cotton to individual rats divided into the groups (n=3 in each group). This operation was carried out continuously for 2 weeks. After termination of the application test, the rats were dissected, and liver fat, epididymal fat, perirenal fat, mesenteric fat, and subcutaneous fat were carefully recovered. Thereafter, the weight of each fat was measured.
Herein, in the present example, the significance test was carried out as follows. First, the mean value±standard error in each group was calculated, and a variance test was then carried out. In the case of equal variance, the significance test was carried out according to the t-test, and in the case of unequal variance, the significance test was carried out according to the Welch method.

[1] = orally administered, approximately 120 mg/day over 8 weeks; cited from earlier work

## CC(C)[C@H](C)CC[C@@H](C)[C@H]1CC[C@H]2[C@@H]3CC=C4CC(=O)CC[C@]4(C)[C@H]3CC[C@]12C [campest-5-en-3-one]
SD rats
  reduction of the amount of subcutaneous fat compared with the control (ethanol solution): approximately 16%
[1]
  subcutaneous fat reduction percentage: 26%
